Assay results: patent US8921382B2, “Thiazolo[5,4-d] pyrimidines and their use as agrochemicals” (Dow AgroSciences, LLC., priority 2010, dated 2014)

Tests used:
[1] = system: Pyricularia oryzae; assay: whole plant or invertebrate; assay type: in vivo; conditions: foliar, read-out: Activity against Fungal Diseases PYRIOR (percent disease control)
[2] = system: Pseudoperonospora cubensis; assay: Cucumber Downy Mildew foliar spray test, inoculated one day after treatment; assay type: in vivo; conditions: applied to foliage at 200 ppm, cucumber plants, read-out: Activity against Fungal Diseases PSPECU (percent disease control)
Method: Fungicide activity data are the level (in percent) at which the given disease was controlled when the given compound was applied to the foliage of the plants at 200 ppm. In a few cases (noted in the table) the compound was applied to the plants at 25 ppm or 3 ppm. The plants were inoculated with the fungus one day after treatment. ***=80-100% control; **=50-79% control; *=0-49% control. […] The activity of the compounds as effective fungicides was determined by applying the compounds to plants and observing control of fungal disease. […] All plants were inoculated with spores of the fungus the day after treatment, then incubated in an environment conducive to disease development. Disease severity was evaluated 4 to 25 days (d) later, depending on the speed of disease development. The following experiments were performed in the laboratory to determine the fungicidal efficacy of the compounds of the invention. Cucumber Downy Mildew (causal agent Pseudoperonospora cubensis; Bayer code […]): Cucumber plants (variety 'Bush Champion' or 'Bush Pickle Hybrid') were grown from seed in a soil-less peat-based potting mixture (Metromix) until the first true leaf was 20-80% expanded. Each pot contained 1 seedling. These plants were sprayed until wet with the formulated test compound. On the following day, the leaves were inoculated with an aqueous suspension of downy mildew sporangia and the plants were kept in high humidity for one day to permit sporangia to germinate and infect the leaf. The plants were then incubated in a growth chamber until disease developed on untreated control plants. […] The effectiveness of the test compounds at controlling disease when sprayed on leaves was determined by assessing the severity of disease on treated plants, then converting the severity to percent control based on the level of disease on untreated, inoculated plants.

[3] = system: Septoria tritici; assay: Septoria Blotch of Wheat foliar spray test, inoculated one day after treatment; assay type: in vivo; conditions: Zymoseptoria tritici, wheat plants, read-out: Activity against Fungal Diseases SEPTTR (percent disease control); for pest or weed control at 200 ppm: applied to foliage at 200 ppm; for pest or weed control at 25 ppm: Tested at 25 ppm
Method: (§1) Fungicide activity data are the level (in percent) at which the given disease was controlled when the given compound was applied to the foliage of the plants at 200 ppm. In a few cases (noted in the table) the compound was applied to the plants at 25 ppm or 3 ppm. The plants were inoculated with the fungus one day after treatment. ***=80-100% control; **=50-79% control; *=0-49% control. […] The activity of the compounds as effective fungicides was determined by applying the compounds to plants and observing control of fungal disease. […] All plants were inoculated with spores of the fungus the day after treatment, then incubated in an environment conducive to disease development. Disease severity was evaluated 4 to 25 days (d) later, depending on the speed of disease development. The following experiments were performed in the laboratory to determine the fungicidal efficacy of the compounds of the invention. […] Each pot contained 3-10 seedlings. These plants were sprayed until wet with the formulated test compound. On the following day, the leaves were inoculated with an aqueous spore suspension of Septoria tritici and the plants were kept in high humidity (one day in a dark dew chamber followed by two days in a lighted dew chamber) to permit spores to germinate and infect the leaf. The plants were then transferred to a greenhouse until disease developed on untreated control plants. […] The effectiveness of the test compounds at controlling disease when sprayed on leaves was determined by assessing the severity of disease on treated plants, then converting the severity to percent control based on the level of disease on untreated, inoculated plants.

[4] = system: Puccinia recondita tritici; assay: Leaf Rust of Wheat foliar spray test, inoculated one day after treatment; assay type: in vivo; conditions: applied to foliage at 200 ppm, wheat plants, read-out: Activity against Fungal Diseases PUCCRT (percent disease control)
Method: as §1, with “3-8” for “3-10”, “compounds.” for “compound.”, “Puccinia recondita” for “Septoria”, “overnight” for “(one day in a dark dew chamber followed by two days in a lighted dew chamber)”

[5] = system: Caenorhabditis elegans; conditions: Application rate 10 micrograms per milliliter agar; evaluated after 24 h at 20° C.
Method: The activity of the compounds against Caenorhabditis elegans was determined by dissolving compounds in DMSO, then applying them to petri dishes containing Nematode Growth Medium agar to a final concentration of 10 micrograms (μg) compound per milliliter agar. Escherichia coli bacteria were grown on the plates to provide a food source for the larvae of Caenorhabditis elegans. The bacteria were heat-killed at 65° C. before compounds were added to the plates.
The plates with compound and heat-killed bacteria were infested with 10 microliter (μL) drops containing eggs from wild-type Caenorhabditis elegans worms. Adult worms were dissolved in potassium hydroxide (KOH) and bleach and washed in Ringers solution to generate the egg suspension. Each compound was screened with approximately 400 eggs, divided between two petri dishes. Egg hatching was evaluated after 24 h at 20° C. Mortality was averaged over the two plates.

COc1cc(CCNc2ncnc3scnc23)ccc1O [Compound 12, 2-methoxy-4-[2-(thiazolo[5,4-d]pyrimidin-7-ylamino)-ethyl]-phenol]
melting point: 151 to 154 °C

COc1cc(CCNc2ncnc3scnc23)ccc1Oc1cc(C(F)(F)F)cc[n+]1[O-] [Compound 42, {2-[3-methoxy-4-(1-oxy-4-trifluoromethylpyridin-2-yloxy)-phenyl]-ethyl}-thiazolo[5,4-d]pyrimidin-7-ylamine]
pest or weed control at 200 ppm [1]: 80 to 100% | pest or weed control at 200 ppm [2]: 80 to 100% | pest or weed control at 200 ppm [3]: 80 to 100% | pest or weed control at 200 ppm [4]: 80 to 100%

FC(F)(F)c1ccncc1Oc1ccc(CCNc2ncnc3scnc23)cc1 [Compound 43, thiazolo[5,4-d]pyrimidin-7-yl-{2-[4-(4-trifluoromethylpyridin-3-yloxy)-phenyl]-ethyl}-amine]
pest or weed control at 200 ppm [1]: 80 to 100% | pest or weed control at 200 ppm [2]: 80 to 100% | pest or weed control at 200 ppm [3]: 80 to 100% | pest or weed control at 200 ppm [4]: 80 to 100%

c1ccc2c(c1)oc1ccc(CCNc3ncnc4scnc34)cc12 [Compound 44, (2-dibenzofuran-2-ylethyl)-thiazolo[5,4-d]pyrimidin-7-yl-amine]
pest or weed control at 200 ppm [1]: 80 to 100% | pest or weed control at 200 ppm [2]: 80 to 100% | pest or weed control at 200 ppm [3]: 50 to 79% | pest or weed control at 200 ppm [4]: 0 to 49%

Cc1cc(CCNc2ncnc3scnc23)ccc1Oc1nc(C(F)(F)F)c(Cl)s1 [Compound 46, {2-[4-(5-chloro-4-trifluoromethylthiazol-2-yloxy)-3-methylphenyl]-ethyl}-thiazolo[5,4-d]pyrimidin-7-ylamine]
pest or weed control at 200 ppm [1]: 80 to 100% | pest or weed control at 200 ppm [2]: 80 to 100% | pest or weed control at 200 ppm [3]: 80 to 100% | pest or weed control at 200 ppm [4]: 80 to 100%

Cc1cc(CCNc2ncnc3scnc23)ccc1Oc1c(Cl)cnc(C(F)(F)F)c1Cl [Compound 49, {2-[4-(3,5-dichloro-2-trifluoromethylpyridin-4-yloxy)-3-methylphenyl]-ethyl}-thiazolo[5,4-d]pyrimidin-7-ylamine]
pest or weed control at 200 ppm [1]: 80 to 100% | pest or weed control at 200 ppm [2]: 50 to 79% | pest or weed control at 25 ppm [3]: 0 to 49% | pest or weed control at 200 ppm [4]: 50 to 79%

FC(F)(F)c1cc(Oc2ccc(CCNc3ncnc4scnc34)cc2)ncn1 [Compound 52, thiazolo[5,4-d]pyrimidin-7-yl-{2-[4-(6-trifluoromethylpyrimidin-4-yloxy)-phenyl]-ethyl}-amine]
pest or weed control at 200 ppm [1]: 80 to 100% | pest or weed control at 200 ppm [2]: 80 to 100% | pest or weed control at 25 ppm [3]: 80 to 100% | pest or weed control at 200 ppm [4]: 80 to 100%

Cc1cc(CCNc2ncnc3scnc23)ccc1Oc1cc(C(F)(F)F)ncn1 [Compound 53, {2-[3-methyl-4-(6-trifluoromethylpyrimidin-4-yloxy)-phenyl]-ethyl}-thiazolo[5,4-d]pyrimidin-7-ylamine]
pest or weed control at 200 ppm [1]: 80 to 100% | pest or weed control at 200 ppm [2]: 80 to 100% | pest or weed control at 25 ppm [3]: 80 to 100% | pest or weed control at 200 ppm [4]: 80 to 100%

Cc1cc(Oc2cc(C(F)(F)F)ccn2)ccc1CCNc1ncnc2scnc12 [Compound 59, {2-[2-methyl-4-(4-trifluoromethylpyridin-2-yloxy)-phenyl]-ethyl}-thiazolo[5,4-d]pyrimidin-7-ylamine]
pest or weed control at 200 ppm [1]: 80 to 100% | pest or weed control at 200 ppm [2]: 80 to 100% | pest or weed control at 200 ppm [3]: 80 to 100% | pest or weed control at 200 ppm [4]: 80 to 100%

Fc1cc(C(F)(F)F)cnc1Oc1ccc(CCNc2ncnc3scnc23)cc1 [Compound 61, {2-[4-(3-fluoro-5-trifluoromethylpyridin-2-yloxy)-phenyl]-ethyl}-thiazolo[5,4-d]pyrimidin-7-ylamine]
pest or weed control at 200 ppm [1]: 80 to 100% | pest or weed control at 200 ppm [2]: 80 to 100% | pest or weed control at 25 ppm [3]: 50 to 79% | pest or weed control at 200 ppm [4]: 80 to 100%

Cc1cc(C(F)(F)F)cc(Oc2ccc(CCNc3ncnc4scnc34)cc2)n1 [Compound 62, {2-[4-(6-methyl-4-trifluoromethylpyridin-2-yloxy)-phenyl]-ethyl}-thiazolo[5,4-d]pyrimidin-7-ylamine]
pest or weed control at 200 ppm [1]: 80 to 100% | pest or weed control at 200 ppm [2]: 80 to 100% | pest or weed control at 200 ppm [3]: 80 to 100% | pest or weed control at 200 ppm [4]: 80 to 100%

ivermectin
Percent mortality [5]: 95%
